# Measured values from patent US12042483B2, “Prophylactic and therapeutic drug for nonalcoholic fatty liver disease” (Kowa Company, Ltd., priority 2017, dated 2024).
# Experiments:
# Assay type in all cases: in vivo
# NASH-HCC mouse [1] = test: Ballooning of hepatocytes score, NASH-HCC mouse model (Example 2, Compound 1 with ipragliflozin); settings: 3 weeks, group mean of scores 0-2, control 1.50, not significant vs control
# Experimental: Ballooning of hepatocytes in each mouse was scored under blind conditions according to the following criteria (Kleiner et al., Hepatology 41, 1313-21, 2005). No balloon cells: 0 Balloon cell is rare (Few balloon cells): 1 Many Balloon cells or prominent (Ballooning): 2 Then, the mean value of the scores (ballooning score) was calculated in each group and the values were shown (FIG. 2). Statistical processing was performed using statistical software EZR, which extends the functions of R and R commander. The software is distributed free of charge on the website of Jichi Medical University Saitama Medical Center (Bone Marrow Transplantation (2013) 48, 452-458). The Steel test (N=5 to 7) was performed using EZR, the drug administration group was labeled with the mark * in figures when the group had the significant difference at p<0.05 with respect to the control group, and labeled with the mark ** when the group had the significant difference at p<0.01. The effect of Compound 1 combined with ipragliflozin was examined in NASH-HCC mice (Non-Patent Document 9). NASH-HCC mice were prepared in the same manner as in 1) of Example 1, and were used for this experiment. […]
# NASH-HCC mouse [2] = test: Lipid droplet size in hepatocytes, NASH-HCC mouse model (Example 1, Compound 1 with tofogliflozin); settings: 3 weeks, control 1.17, not significant vs control
# Experimental: A NASH-HCC mouse is a model animal that develops liver cirrhosis from fatty liver via NASH when it is fed with a high fat diet, and subsequently develops hepatocellular carcinoma (Non-Patent Document 9). The effect of compound 1 combined with tofogliflozin was examined using the NASH-HCC mouse model. NASH-HCC mice were prepared with reference to Non-Patent Document 9, and were used for this experiment. Specifically, male C57BL/6J mice were subcutaneously administered 200 μg of streptozotocin on the second day after birth. The mice were fed ad libitum with a high-fat diet (HFD-32, Clea Japan, Inc.) for 2 weeks starting from 4-week-old. The mice were separated into four groups as described in below 2) and were administered drugs from 6-week-old to 9-week-old as described in below 3). Daily food consumption of the mice in each group were measured while the drugs were administered so that the mice of all groups were fed with the same amount of food as those for the control group. […] Using the specimens, the lipid droplet size in hepatocyte was analyzed by image analysis software Image J. The area of 6000 to 10,000 lipid droplets was measured in each specimen. The median of the lipid droplet area was calculated for each mouse and then the median and quartile were calculated for each group based on the median for each mouse in the group. […]
# NASH-HCC mouse [3] = test: Ballooning of hepatocytes score, NASH-HCC mouse model (Example 1, Compound 1 with tofogliflozin); settings: 3 weeks, group mean of scores 0-2, control 1.33, not significant vs control
# Experimental: A NASH-HCC mouse is a model animal that develops liver cirrhosis from fatty liver via NASH when it is fed with a high fat diet, and subsequently develops hepatocellular carcinoma (Non-Patent Document 9). The effect of compound 1 combined with tofogliflozin was examined using the NASH-HCC mouse model. NASH-HCC mice were prepared with reference to Non-Patent Document 9, and were used for this experiment. Specifically, male C57BL/6J mice were subcutaneously administered 200 μg of streptozotocin on the second day after birth. The mice were fed ad libitum with a high-fat diet (HFD-32, Clea Japan, Inc.) for 2 weeks starting from 4-week-old. […] Daily food consumption of the mice in each group were measured while the drugs were administered so that the mice of all groups were fed with the same amount of food as those for the control group. […] Using the specimens, the lipid droplet size in hepatocyte was analyzed by image analysis software Image J. The area of 6000 to 10,000 lipid droplets was measured in each specimen. The median of the lipid droplet area was calculated for each mouse and then the median and quartile were calculated for each group based on the median for each mouse in the group. […] Ballooning of hepatocytes in each mouse was scored under blind conditions according to the following criteria (Kleiner et al., Hepatology 41, 1313-21, 2005). […]
# [4] = 0.1 mg/kg Compound 1, oral once a day
# [5] = 10 mg/kg tofogliflozin, oral once a day
compound,measurement,setting,value
"OC[C@H]1O[C@@H](c2ccc(F)c(Cc3cc4ccccc4s3)c2)[C@H](O)[C@@H](O)[C@@H]1O [ipragliflozin, (1S)-1,5-anhydro-1-C-{3-[(1-benzothiophen-2-yl)methyl]-4-fluorophenyl}-D-glucitol]",ballooning score,"NASH-HCC mouse [1]; 3 mg/kg ipragliflozin, oral once a day",0.88
"CC[C@@H](Oc1cccc(CN(CCCOc2ccc(OC)cc2)c2nc3ccccc3o2)c1)C(=O)O [Compound 1, (R)-2-[3-[[N-(benzoxazol-2-yl)-N-3-(4-methoxyphenoxy)propyl]aminomethyl]phenoxy]butyric acid]",ballooning score,NASH-HCC mouse [1]; [4],1.35
same,median of lipid droplet size,NASH-HCC mouse [2]; [4],1.00 μm^2
same,ballooning score,NASH-HCC mouse [3]; [4],0.60
"CCc1ccc(Cc2ccc3c(c2)[C@]2(OC3)O[C@H](CO)[C@@H](O)[C@H](O)[C@H]2O)cc1 [tofogliflozin, (1S,3′R,4'S,5'S,6′R)-6-[(4-ethylphenyl)methyl]-6′-(hydroxymethyl)-3′,4′,5′,6′-tetrahydro-3H-spiro[2-benzofuran-1,2′-pyran]-3′,4′,5′-triol]",median of lipid droplet size,NASH-HCC mouse [2]; [5],1.00 μm^2
same,ballooning score,NASH-HCC mouse [3]; [5],0.71
